Non-standard residues stand in square brackets, D forms with d. Residues, ends and D or L forms follow the SMILES beside them. Sar = CNCC(=O)O
Experiments:
mouse = assay: acute toxicity test; assay type: in vivo; details: intravenously injected, 100 mg/Kg
platelet aggregation = details: times as strong as RGDS; cited from earlier work
[1] = test system: platelets activated by ADP; details: 400 μM; cited from earlier work

For `C[C@H](NC(=O)[C@H](CO)NC(=O)[C@@H]1CCCN1)C(=O)N(C)CC(=O)N[C@@H](CC(=O)O)C(=O)N[C@@H](Cc1c[nH]c2ccccc12)C(=O)O` [Example 1, Pro-Ser-Ala-Sar-Asp-Trp-OH] (H-PSA[Sar]DW-OH), the acute toxicity (mouse) was “no toxicity was observed”.

For “arginine-glycine-aspartic acid-phenylalanine [RGDF]”, the “platelet aggregation-inhibiting activity relative to RGDS” value (platelet aggregation) is given as 4-5 times.

In the case of “glycine-arginine-glycine-aspartic acid-serine-proline [GRGDSP]”, the “inhibition of aggregation of platelets activated by ADP” value [1] is listed as “completely inhibited”.

From US5721213A, “Peptides, active as inhibitors of platelet aggregation” (Nippon Steel Corporation, priority 1993, dated 1998)
